Results from US10011629B2, “Nucleoside analogs for treatment of the flaviviridae family of viruses and cancer” (Cocrystal Pharma, Inc., priority 2015, dated 2018).

Columns and labels:
[1] = target: human mitochondrial RNA polymerase (POLRMT) (Homo sapiens, UniProt O00411); assay: In vitro human mitochondrial RNA polymerase (POLRMT) incorporation assay; conditions: 100 μM rNTP, 2 hr, normalized to natural rNTP
Experimental: 125 nM of POLRMT was incubated with 500 nM of 5′-radiolabled RNA/DNA hybrid, 10 mM MgCl2 and 100 μM of the corresponding nucleoside triphosphate. For non-nucleoside analogs, 100 μM of inhibitor was added at the same time as 100 μM UTP. Incorporation was allowed to proceed for 2 h at 30° C. and reactions were stopped by the addition of 10 mM EDTA and formamide. Samples were visualized on 20% denaturing polyacrylamide gel. Data were analyzed by normalizing the product fraction for each nucleoside triphosphate analog to that of the corresponding natural nucleoside triphosphate.
100 μM of each rNTP was incubated with POLRMT enzyme and the appropriate DNA/RNA primer/template hybrid and incorporation was evaluated at 2 hr. Nucleoside triphosphate analog incorporation was normalized to that of natural rNTP substrates.

[2] = target: HCV NS5B RNA polymerase GT 3a WT; assay: NS5B enzyme assay, GT 3a WT; assay type: biochemical; conditions: NS5B enzyme GT 3a WT; average of two to three replicates ± SD
Experimental: The 21-amino-acid C-terminal truncated HCV NS5B RNA polymerase can be cloned from the HCV replicon cells, modified with a six-His-terminal tail, expressed in a prokaryotic expression vector (pQE60; Qiagen), and subsequently purified over a Talon cobalt affinity resin column (Clontech, Palo Alto, Calif.).^1 Purification can be monitored by SDS-PAGE and Western blotting. The resulting purified protein can be dialyzed overnight against 50 mM sodium phosphate (pH 8.0)-300 mM sodium chloride-0.5% Triton X-100-50% glycerol-2 mM dithiothreitol. The dialysate maintains consistent activity for more than 6 months when stored at −20° C. Protein can be quantified with the Coomassie Plus protein assay reagent (Pierce) by using a bovine serum albumin standard from the same supplier.
NS5B RNA polymerase reaction can be studied by monitoring the incorporation of ^32P-labeled UMP into the newly synthesized RNA strand by using minus IRES as the template. […] After the membrane is rinsed with water followed by rinsing with ethanol, the dots can be cut out and the radioactivity counted in a Packard liquid scintillation counter. The amount of product can be calculated on the basis of the total radioactivity in the reaction mixture. The rate of the reaction can be determined from the slope of the time course of product formation. […]

[3] = target: T1, HCV NS5B RNA polymerase GT 3a L159F (Hepatitis C virus genotype 3a, UniProt Q81258, L2589F); assay: NS5B enzyme assay, GT 3a L159F; assay type: biochemical; conditions: NS5B enzyme GT 3a L159F; average of two to three replicates ± SD
T1 construct: The 21-amino-acid C-terminal truncated HCV NS5B RNA polymerase; His6; made in house
T1 sequence (Q81258 2431-3000 L2589F): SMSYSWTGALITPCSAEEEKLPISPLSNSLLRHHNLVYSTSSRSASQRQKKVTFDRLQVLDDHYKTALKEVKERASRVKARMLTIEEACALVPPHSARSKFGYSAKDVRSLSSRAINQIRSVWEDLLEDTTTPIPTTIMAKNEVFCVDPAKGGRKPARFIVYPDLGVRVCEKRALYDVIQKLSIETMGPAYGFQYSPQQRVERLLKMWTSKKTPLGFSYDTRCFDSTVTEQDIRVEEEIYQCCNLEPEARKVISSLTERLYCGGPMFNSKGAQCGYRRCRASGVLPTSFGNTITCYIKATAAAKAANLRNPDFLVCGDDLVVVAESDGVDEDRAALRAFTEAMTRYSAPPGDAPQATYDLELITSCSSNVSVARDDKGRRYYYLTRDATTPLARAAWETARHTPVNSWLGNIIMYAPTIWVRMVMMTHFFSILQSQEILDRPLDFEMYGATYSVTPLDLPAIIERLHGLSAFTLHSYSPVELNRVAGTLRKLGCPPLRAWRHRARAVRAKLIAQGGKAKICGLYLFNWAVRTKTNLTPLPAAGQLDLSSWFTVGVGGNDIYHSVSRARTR
Experimental: The 21-amino-acid C-terminal truncated HCV NS5B RNA polymerase can be cloned from the HCV replicon cells, modified with a six-His-terminal tail, expressed in a prokaryotic expression vector (pQE60; Qiagen), and subsequently purified over a Talon cobalt affinity resin column (Clontech, Palo Alto, Calif.).^1 Purification can be monitored by SDS-PAGE and Western blotting. The resulting purified protein can be dialyzed overnight against 50 mM sodium phosphate (pH 8.0)-300 mM sodium chloride-0.5% Triton X-100-50% glycerol-2 mM dithiothreitol. […] Protein can be quantified with the Coomassie Plus protein assay reagent (Pierce) by using a bovine serum albumin standard from the same supplier.

human mitochondrial RNA polymerase (POLRMT), sequence (O00411 42-1230): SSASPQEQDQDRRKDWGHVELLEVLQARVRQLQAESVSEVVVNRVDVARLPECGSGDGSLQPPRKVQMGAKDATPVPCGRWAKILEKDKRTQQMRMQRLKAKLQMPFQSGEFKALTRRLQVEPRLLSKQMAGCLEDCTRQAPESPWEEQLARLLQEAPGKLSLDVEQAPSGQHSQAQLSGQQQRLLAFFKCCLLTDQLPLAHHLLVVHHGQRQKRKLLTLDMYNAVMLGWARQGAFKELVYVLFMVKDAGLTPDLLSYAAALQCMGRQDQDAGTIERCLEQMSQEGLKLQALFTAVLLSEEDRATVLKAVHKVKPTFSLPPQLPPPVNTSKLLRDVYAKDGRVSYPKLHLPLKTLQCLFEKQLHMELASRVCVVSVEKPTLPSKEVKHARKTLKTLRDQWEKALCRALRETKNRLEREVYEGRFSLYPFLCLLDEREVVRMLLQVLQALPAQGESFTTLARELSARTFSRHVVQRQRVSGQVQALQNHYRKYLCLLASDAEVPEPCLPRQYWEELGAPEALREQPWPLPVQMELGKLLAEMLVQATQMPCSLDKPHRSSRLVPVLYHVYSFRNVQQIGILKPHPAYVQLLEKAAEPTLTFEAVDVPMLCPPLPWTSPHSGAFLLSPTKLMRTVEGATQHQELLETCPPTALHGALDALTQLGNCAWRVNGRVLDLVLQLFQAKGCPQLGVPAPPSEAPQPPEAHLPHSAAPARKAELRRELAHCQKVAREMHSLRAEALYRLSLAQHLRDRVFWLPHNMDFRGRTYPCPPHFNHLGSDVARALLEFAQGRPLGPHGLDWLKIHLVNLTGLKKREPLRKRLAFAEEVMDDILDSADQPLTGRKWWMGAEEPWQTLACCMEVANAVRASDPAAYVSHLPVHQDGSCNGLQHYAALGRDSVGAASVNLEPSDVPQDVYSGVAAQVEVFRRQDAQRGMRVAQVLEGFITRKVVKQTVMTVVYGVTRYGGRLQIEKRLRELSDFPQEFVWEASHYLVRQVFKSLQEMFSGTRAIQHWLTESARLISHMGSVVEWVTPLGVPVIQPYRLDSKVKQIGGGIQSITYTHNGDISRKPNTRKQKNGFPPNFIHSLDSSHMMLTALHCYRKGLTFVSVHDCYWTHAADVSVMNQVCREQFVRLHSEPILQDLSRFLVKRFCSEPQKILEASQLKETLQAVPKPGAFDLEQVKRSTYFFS

C[C@@]1(F)[C@H](O)[C@@H](COP(=O)(O)OP(=O)(O)OP(=O)(O)O)O[C@H]1n1ccc(=O)[nH]c1=O [2′-Me-2′-F-UTP]
incorporation by POLRMT as compared to natural UTP [1]: 3.1%
EC50 [2]: 7.2 ± 2.1 µM
EC50 [3]: 5.2 ± 1.4 µM
